Tests used:
H9C2 cells [1] = test: Cell death protective effect in cardiac myocytes against Erastin, glutamate and RSL3 (LDH); type: cell-based, white mouse; conditions: 24 h
Procedure: (§1) In order to identify the protective effect on cardiac cells, H9C2 cells were divided into 96-well plates by 1×10^4 and cultured for 18 to 24 hours. The compounds of Examples were diluted to final concentrations of 0.1 and 1.0 μM, treated in each well, and incubated for 15 to 20 minutes. Erastin, glutamate, and RSL3 were treated to have final concentrations of 1 μM, 25 mM, and 0.5 μM, respectively, and cultured for 24 hours. In order to identify the protective effect of each compound, the degree of LDH extracellular secretion was measured using cytotoxicity LDH assay kit [Dojindo; CK12]. Briefly, at the time when the treatment of the cells with Erastin, glutamate, and RSL3 for 24 hours is completed, the supernatants containing the cells are taken by 70 μL and transferred to a new 96-well plate. The assay buffer included in the kit is added in an amount of 70 μL/well (the same amount as the sample) thereto, and then the plate is wrapped with a foil and the reaction is performed at room temperature for 15 minutes.

PC-12 cells = test: Cell death protective effect in adrenal cells against Erastin, glutamate and RSL3 (LDH); type: cell-based, rat; conditions: 24 h
Procedure: as §1, with “adrenal” for “cardiac”, “PC-12” for “H9C2”, “The compounds of Examples were diluted to final concentrations of 0.1 and 1.0 μM, treated in each well, and incubated for 15 to 20 minutes.” left out, “10” for “25”, “0.3” for “0.5”

NRK-49F cells = test: Cell death protective effect in renal fibroblasts against Erastin, glutamate and RSL3 (LDH); type: cell-based, rat; conditions: 24 h
Procedure: as §1, with “on renal fibroblasts, NRK-49F” for “on cardiac cells, H9C2”, “and 1.” for “and 1.0”, “of 3” for “of 1”, “μM, 75” for “μM, 25”, “and 3” for “and 0.5”

H9C2 cells [2] = test: Cell protection effect against t-BHP in heart cells (LDH release); type: cell-based; conditions: H9C2, t-BHP 40 μM, 2 hours
Outline: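 H9C2 cardiomyocytes pre-treated 15–20 min with compound (final 0.03–30 μM, 3-fold series), then challenged with 40 μM t-BHP for 2 h. LDH released into supernatant measured colorimetrically (30 min, room temperature, A490); EC50 calculated from protection.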

ARPE-19 cells = test: Cell death protective effect in retinal epithelial cells against Erastin and RSL3 (LDH); type: cell-based, human; conditions: 24 h
Procedure: In order to identify the protective effect on retinal epithelial cells, ARPE-19 cells were divided into 96-well plates by 1×10^4 and cultured for 18 to 24 hours. The compounds of Examples were diluted to final concentrations of 0.03 and 0.3 μM, treated in each well, and incubated for 20 minutes. Erastin, and RSL3 were treated to have final concentrations of 10 μM, and 0.3 μM, respectively, and cultured for 24 hours. In order to identify the protective effect of each compound, the degree of LDH extracellular secretion was measured using cytotoxicity LDH assay kit [Dojindo; CK12]. Briefly, at the time when the treatment of the cells with Erastin, and RSL3 for 24 hours is completed, the supernatants containing the cells are taken by 70 μL and transferred to a new 96-well plate. The assay buffer included in the kit is added in an amount of 70 μL/well (the same amount as the sample) thereto, and then the plate is wrapped with a foil and the reaction is performed at room temperature for 15 minutes.

[3] = H9C2, Erastin, 1 μM, compound 0.1 μM
[4] = H9C2, Erastin, 1 μM, compound 1.0 μM
[5] = H9C2, Glutamate, 25 mM, compound 0.1 μM
[6] = H9C2, Glutamate, 25 mM, compound 1.0 μM
[7] = H9C2, RSL3, 0.5 μM, compound 0.1 μM
[8] = H9C2, RSL3, 0.5 μM, compound 1.0 μM
[9] = PC-12, Erastin, 1 μM, compound 0.1 μM
[10] = PC-12, Erastin, 1 μM, compound 1.0 μM
[11] = PC-12, Glutamate, 10 mM, compound 0.1 μM
[12] = PC-12, Glutamate, 10 mM, compound 1.0 μM
[13] = PC-12, RSL3, 0.3 μM, compound 0.1 μM
[14] = PC-12, RSL3, 0.3 μM, compound 1.0 μM
[15] = Glutamate, 75 mM, compound 0.1 μM
[16] = Glutamate, 75 mM, compound 1.0 μM
[17] = ARPE-19, Erastin, 10 μM, compound 0.03 μM
[18] = ARPE-19, Erastin, 10 μM, compound 0.3 μM
[19] = ARPE-19, RSL3, 0.3 μM, compound 0.03 μM (first RSL3 column)
[20] = ARPE-19, RSL3, 0.3 μM, compound 0.03 μM (second RSL3 column)

Row | EC50 (H9C2 cells [2]) [nM] | SMILES | inhibition (%) (H9C2 cells [1]; [3]) | inhibition (%) (H9C2 cells [1]; [4]) | inhibition (%) (H9C2 cells [1]; [5]) | inhibition (%) (H9C2 cells [1]; [6]) | inhibition (%) (H9C2 cells [1]; [7]) | inhibition (%) (H9C2 cells [1]; [8]) | inhibition (%) (PC-12 cells; [9]) | inhibition (%) (PC-12 cells; [10]) | inhibition (%) (PC-12 cells; [11]) | inhibition (%) (PC-12 cells; [12]) | inhibition (%) (PC-12 cells; [13]) | inhibition (%) (PC-12 cells; [14]) | inhibition (%) (NRK-49F cells; Erastin, 3 μM, compound 0.1 μM) | inhibition (%) (NRK-49F cells; Erastin, 3 μM, compound 1.0 μM) | inhibition (%) (NRK-49F cells; [15]) | inhibition (%) (NRK-49F cells; [16]) | inhibition (%) (NRK-49F cells; RSL3, 3 μM, compound 0.1 μM) | inhibition (%) (NRK-49F cells; RSL3, 3 μM, compound 1.0 μM) | inhibition (%) (ARPE-19 cells; [17]) | further results
1 | ≤ 300 | COCCc1cc(NC2CCOCC2)c2[nH]c(-c3ccccc3)cc2c1 [Example 41, 5-(2-methoxyethyl)-2-phenyl-N-(tetrahydro-2H-pyran-4-yl)-1H-indol-7-amine] | 100 | 100 | 99 | 98 | 100 | 100 | 100 | 100 | 76 | 100 | 100 | 100 | 96 | 94 | 100 | 100 | 97 | 97 | 100 | inhibition (%) (ARPE-19 cells; [18]): 100%; inhibition (%) (ARPE-19 cells; [19]): 100%; inhibition (%) (ARPE-19 cells; [20]): 100%
2 | > 1000 | CCOCc1cc(NC2CCOCC2)c2[nH]c(-c3ccccc3)c(-c3ncc[nH]3)c2c1 [Example 46, 5-(ethoxymethyl)-3-(1H-imidazol-2-yl)-2-phenyl-N-(tetrahydro-2H-pyran-4-yl)-1H-indole-7-amine] | 4 | 100 | 4 | 94 | 15 | 9 | 0 | 38 | 4 | 6 | 0 | 100 | 5 | 64 | 13 | 16 | 0 | 5 | 3 | inhibition (%) (ARPE-19 cells; [18]): 64%; inhibition (%) (ARPE-19 cells; [19]): 5%; inhibition (%) (ARPE-19 cells; [20]): 43%
